The values below come from ChEMBL document CHEMBL1143196, “Discovery of kinase inhibitors by high-throughput docking and scoring based on a transferable linear interaction energy model” (J Med Chem, 2008).

A word on the IC50: it is the concentration that inhibits the measured activity by half. A lower IC50 goes with inhibition by little substance.

The first test deals with Epidermal growth factor receptor (Homo sapiens, UniProt P00533).
Sequence of Epidermal growth factor receptor (P00533 whole entry): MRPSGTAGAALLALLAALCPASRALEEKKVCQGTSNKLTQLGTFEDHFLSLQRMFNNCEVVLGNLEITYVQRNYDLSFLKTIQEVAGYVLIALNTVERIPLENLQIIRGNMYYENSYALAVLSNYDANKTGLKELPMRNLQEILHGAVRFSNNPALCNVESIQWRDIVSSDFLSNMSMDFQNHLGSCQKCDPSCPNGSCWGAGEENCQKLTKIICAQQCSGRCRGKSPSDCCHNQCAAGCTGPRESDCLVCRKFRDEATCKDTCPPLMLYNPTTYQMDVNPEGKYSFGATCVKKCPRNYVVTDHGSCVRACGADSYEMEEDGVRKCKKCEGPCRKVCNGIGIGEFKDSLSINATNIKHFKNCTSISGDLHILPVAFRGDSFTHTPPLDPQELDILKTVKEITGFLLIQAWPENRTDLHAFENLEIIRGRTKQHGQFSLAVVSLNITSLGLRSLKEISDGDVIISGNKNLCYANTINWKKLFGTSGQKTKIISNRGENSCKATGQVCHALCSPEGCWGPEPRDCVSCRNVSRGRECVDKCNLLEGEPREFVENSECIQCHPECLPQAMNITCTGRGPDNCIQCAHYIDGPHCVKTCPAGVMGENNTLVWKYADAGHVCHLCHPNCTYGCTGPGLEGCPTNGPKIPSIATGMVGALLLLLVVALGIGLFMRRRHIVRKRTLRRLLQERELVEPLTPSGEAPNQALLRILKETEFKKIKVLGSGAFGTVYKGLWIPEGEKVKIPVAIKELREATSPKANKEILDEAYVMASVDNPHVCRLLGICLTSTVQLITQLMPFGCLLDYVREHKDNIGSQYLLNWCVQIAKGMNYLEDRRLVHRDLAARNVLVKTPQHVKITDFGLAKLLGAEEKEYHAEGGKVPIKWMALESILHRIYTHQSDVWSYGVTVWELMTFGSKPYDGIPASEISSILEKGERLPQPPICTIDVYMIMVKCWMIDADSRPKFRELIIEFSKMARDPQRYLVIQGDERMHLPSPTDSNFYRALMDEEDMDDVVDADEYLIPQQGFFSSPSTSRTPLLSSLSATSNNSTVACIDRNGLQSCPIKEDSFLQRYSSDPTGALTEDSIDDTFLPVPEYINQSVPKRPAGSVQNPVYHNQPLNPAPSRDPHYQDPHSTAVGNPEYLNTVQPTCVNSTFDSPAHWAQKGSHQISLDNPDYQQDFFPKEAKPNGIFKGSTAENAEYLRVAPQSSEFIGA
Experiment: not given
Conditions: not given
`COc1c(Br)cccc1Nc1ncnc2ccncc12` had an IC50 of 39.8 nM.

In turn, `OCCNc1c(Br)cccc1Nc1ncnc2ccncc12` had an IC50 of 0.245 nM. Same read-out and setting: the figure for `Brc1cccc(Nc2ncnc3ccncc23)c1NCCCn1ccnc1` is 0.513 nM; for `Brc1cccc(Nc2ncnc3ccccc23)c1` it is 27.5 nM; for `Oc1cc2ncnc(Nc3cccc(Br)c3)c2cc1O` it is 0.174 nM. Still for that read-out and setting: the figure for `CNc1ncc2ncnc(Nc3ccccc3)c2n1` is 13.2 nM. For the compound `Nc1cc(C(F)(F)F)ccc1Nc1ncnc2ccncc12`, the IC50 is 4790 nM. The same measure, in the same setting: the figure for `O=C(O)CCNc1c(Br)cccc1Nc1ncnc2ccncc12` is 0.617 nM; for `COc1cccc(Nc2ncnc3ccncc23)c1N` it is 132 nM; for `COc1cc2ncnc(Nc3ccccc3)c2cc1OC` it is 29.5 nM.

In turn, `CN(C)c1ccc2c(Nc3cccc(Br)c3)ncnc2c1` showed an IC50 of 11.2 nM. In turn, `CN(C)CCCCNc1c(Br)cccc1Nc1ncnc2ccncc12` had an IC50 of 7.41 nM.

In turn, `COc1cc2c(Nc3cccc(Br)c3)ncnc2cn1` had an IC50 of 2.63 nM. The same measure, in the same setting: the result for `O=C(O)CNc1c(Br)cccc1Nc1ncnc2ccncc12` reads 1.51 nM; that for `Oc1ccc2c(Nc3cccc(Br)c3)ncnc2c1`, 4.79 nM. On the same count and under the same terms, the result for `COc1ccc2ncnc(Nc3ccccc3)c2c1` [listing 1 of 2 here] reads 56.2 nM; that for `NNc1c(Br)cccc1Nc1ncnc2ccncc12`, 7.24 nM. Consider `COc1ccc2ncnc(Nc3cccc(Br)c3)c2c1`, for which half-maximal inhibition (IC50) required 355 nM. Compound `Fc1c(Br)cccc1Nc1ncnc2ccncc12` showed an IC50 of 13.2 nM. `OCN(CO)c1c(Br)cccc1Nc1ncnc2ccncc12` had an IC50 of 14.1 nM. The same measure, in the same setting: the result for `Cc1cccc(Nc2ncnc3ccncc23)c1NCCCn1ccnc1` reads 3.55 nM. On to `CN(CC(O)CO)c1c(Br)cccc1Nc1ncnc2ccncc12` (configuration not stated), for which the IC50 is 3.24 nM. Same read-out and setting: the figure for `Brc1cccc(Nc2ncnc3ccncc23)c1NCCN1CCOCC1` is 3.24 nM; for `OCC(O)CNc1c(Br)cccc1Nc1ncnc2ccncc12` (configuration not stated) it is 0.933 nM. In turn, `CNc1ccc2ncnc(Nc3cccc(Br)c3)c2c1` gave an IC50 of 4.07 nM. For the compound `CN(C)c1ccc(Nc2ncnc3ccncc23)c(N)c1`, the IC50 is 4900 nM. Still for that read-out and setting: the result for `OCCN(CCO)c1c(Br)cccc1Nc1ncnc2ccncc12` reads 12 nM; that for `CCCOc1cc2ncnc(Nc3cccc(Br)c3)c2cc1OCCC`, 0.174 nM.

`CN(C)CCCCCNc1c(Br)cccc1Nc1ncnc2ccncc12` showed an IC50 of 8.51 nM.

`O=C(O)CCCNc1c(Br)cccc1Nc1ncnc2ccncc12` gave an IC50 of 0.282 nM. The compound `Nc1cc2ncnc(Nc3ccccc3N)c2cn1` gave a half-maximal inhibitory concentration (IC50) of 5370 nM. `CC(=O)Nc1c(Br)cccc1Nc1ncnc2ccncc12` gave an IC50 of 29.5 nM. `Nc1ccccc1Nc1ncnc2cc(Br)ncc12`: the IC50 is 245 nM. On the same count and under the same terms, the result for `CN(C)c1ccc2c(Nc3cccc(Br)c3)ncnc2n1` reads 331 nM; that for `CN(C)CCCNc1c(Br)cccc1Nc1ncnc2ccncc12`, 8.91 nM. The same measure, in the same setting: the result for `CN(C)CCN(C)c1c(Br)cccc1Nc1ncnc2ccncc12` reads 40.7 nM. `Nc1c(Nc2ncnc3ccncc23)cccc1[N+](=O)[O-]` showed an IC50 of 40.7 nM. With `CN(C)CCNc1c(Br)cccc1Nc1ncnc2ccncc12`, the IC50 was 45.7 nM. Same read-out and setting: the figure for `Cc1cccc(Nc2ncnc3ccncc23)c1NCCCN1CCN(C)CC1` is 5.62 nM; for `Cc1cccc(Nc2ncnc3cnc(N(C)C)nc23)c1` it is 4.07 nM; for `CNc1ccc2ncnc(Nc3cccc(Br)c3)c2n1` it is 3.16 nM. Still for that read-out and setting: the figure for `Nc1ccc2ncnc(Nc3cccc(Br)c3)c2n1` is 7.76 nM; for `Fc1ccc2ncnc(Nc3cccc(Br)c3)c2n1` it is 44.7 nM; for `Nc1c(O)cccc1Nc1ncnc2ccncc12` it is 70.8 nM.

Regarding `COc1cc2ncnc(Nc3ccc(Br)cc3)c2cc1OC`, the IC50 is 0.0724 nM. Same read-out and setting: the result for `Brc1cccc(Nc2ncnc3ccncc23)c1NCCCN1CCOCC1` reads 1.91 nM; that for `COc1ccc(Nc2ncnc3ccncc23)c(N)c1`, 676 nM; that for `COc1ccc2ncnc(Nc3cccc(Br)c3)c2n1`, 4.37 nM. Turning to `COc1ccc2ncnc(Nc3ccccc3)c2c1` [listing 2 of 2 here], the midpoint of inhibition, the IC50, lay at 120 nM.

The compound `CN(C)c1ccc2ncnc(Nc3cccc(Br)c3)c2n1` showed an IC50 of 9.77 nM. In turn, `Clc1cc2c(Nc3cccc(Br)c3)ncnc2cn1` gave an IC50 of 40.7 nM. Same read-out and setting: the result for `Cc1cccc(Nc2ncnc3ccncc23)c1NCCCCN(C)C` reads 5.5 nM; that for `Cc1cccc(Nc2ncnc3cnc(N)nc23)c1`, 17.4 nM; that for `Ic1cccc(Nc2ncnc3ccccc23)c1`, 81.3 nM.

Consider `COc1cc2ncnc(Nc3ccccc3N)c2cn1`, for which the IC50 was 3720 nM. The same measure, in the same setting: the figure for `Nc1c(F)cccc1Nc1ncnc2ccncc12` is 851 nM; for `Nc1cc2c(Nc3cccc(Br)c3)ncnc2cc1Cl` it is 6.61 nM.

With `CN(C)c1cccc(Nc2ncnc3ccncc23)c1N`, 1820 nM corresponded to half-maximal inhibition (IC50). The same measure, in the same setting: the figure for `CN(CCO)c1c(Br)cccc1Nc1ncnc2ccncc12` is 2.63 nM; for `COc1ccc(CNc2cc3c(Nc4cccc(Br)c4)ncnc3cn2)cc1` it is 2.34 nM; for `Nc1cc(Br)ccc1Nc1ncnc2ccncc12` it is 25.7 nM. With `COc1cc2ncnc(Nc3cccc(C(F)(F)F)c3)c2cc1OC`, the concentration for half-maximal inhibition (IC50) is 0.245 nM. Compound `Brc1cccc(Nc2ncnc3ccncc23)c1NCCc1c[nH]cn1` displayed an IC50 of 0.912 nM. In turn, `Fc1cc2c(Nc3cccc(Br)c3)ncnc2cn1` gave a 50% inhibitory concentration (IC50) of 126 nM. Same read-out and setting: the result for `Brc1cccc(Nc2ncnc3ccncc23)c1` reads 35.5 nM; that for `Brc1cccc(Nc2ncnc3cnc(NCCn4ccnc4)nc23)c1`, 2.34 nM.

As for `Nc1c(Cl)cccc1Nc1ncnc2ccncc12`, the IC50 was 120 nM. Same read-out and setting: the figure for `OCCN(CCO)CCCNc1c(Br)cccc1Nc1ncnc2ccncc12` is 1.2 nM; for `CN(CC(=O)O)c1c(Br)cccc1Nc1ncnc2ccncc12` it is 16.2 nM. Same read-out and setting: the result for `CC(=O)Nc1ccc2c(Nc3cccc(Br)c3)ncnc2c1` reads 40.7 nM; that for `CN(C)c1cc2ncnc(Nc3cccc(Br)c3)c2cc1N`, 162 nM; that for `Cc1cccc(Nc2ncnc3cnc(NCCN4CCOCC4)nc23)c1`, 2.34 nM. On the same count and under the same terms, the result for `O=[N+]([O-])c1ccc2ncnc(Nc3cccc(Br)c3)c2c1` reads 912 nM; that for `CNc1ncc2ncnc(Nc3cccc(Br)c3)c2n1`, 0.776 nM; that for `Nc1ccccc1Nc1ncnc2ccncc12`, 251 nM. Turning to `OCCN(CCO)CCNc1c(Br)cccc1Nc1ncnc2ccncc12`, inhibition was half-maximal at 9.33 nM (IC50). On to `CN1CCN(CCCNc2c(Br)cccc2Nc2ncnc3ccncc23)CC1`, for which it took 5.01 nM to reach half-maximal inhibition (IC50). Same read-out and setting: the result for `Nc1c(Br)cccc1Nc1ncnc2ccncc12` reads 10 nM; that for `O=S(=O)(O)CCNc1c(Br)cccc1Nc1ncnc2ccncc12`, 1.41 nM; that for `Brc1cccc(Nc2ncnc3ccncc23)c1NCCCCN1CCOCC1`, 5.5 nM. For `O=[N+]([O-])c1ccc2c(Nc3cccc(I)c3)ncnc2c1`, the IC50 was 550 nM. For `FC(F)(F)c1cccc(Nc2ncnc3ccccc23)c1`, half-maximal inhibition (IC50) required 589 nM. Still for that read-out and setting: the figure for `Clc1cccc(Nc2ncnc3ccccc23)c1` is 23.4 nM. The compound `Clc1ncc2ncnc(Nc3cccc(Br)c3)c2n1` showed an IC50 of 83.2 nM.

As for `CN(C)c1ccc2ncnc(Nc3cccc(Br)c3)c2c1`, the IC50 is 85.1 nM. Same read-out and setting: the figure for `CNc1cc2ncnc(Nc3cccc(Br)c3)c2cc1[N+](=O)[O-]` is 69.2 nM. Consider `Brc1cccc(Nc2ncnc3cccnc23)c1`, for which the IC50 was 34.7 nM.

Test system in a further test: not listed separately
The test can be described thus: cells. The following applies: T-cell.
Consider `Cc1cccc(Cl)c1Nc1nc2cc(NCCCN(C)C)ccc2n2cncc12`, for which the IC50 is 480 nM. Same read-out and setting: the figure for `Cc1cccc(Cl)c1Nc1nc2cc(N3CCN(C)CC3)ccc2n2cncc12` is 720 nM; for `COc1cccc2nc(Nc3c(C)cccc3Cl)c3cncn3c12` it is 2300 nM; for `CCN(CC)c1ccc2nc(Nc3c(C)cccc3Cl)c3cncn3c2c1` it is 2600 nM. Still for that read-out and setting: the figure for `CCN(CC)c1ccc2c(c1)nc(Nc1c(C)cccc1Cl)c1cncn12` is 1700 nM; for `Cc1cccc(Cl)c1Nc1nc2cc(N3CCOCC3)ccc2n2cncc12` it is 1000 nM; for `COc1cc2c(cc1NCCN(C)C)nc(Nc1c(F)cccc1Cl)c1cncn12` it is 240 nM. `COc1cc2c(cc1OCCN1CCOCC1)nc(Nc1c(C)cccc1Cl)c1cncn12` registered an IC50 of 470 nM. `Cc1cccc(Cl)c1Nc1nc2ccc(NCCN(C)C)cc2n2cncc12` displayed an IC50 of 880 nM.

`Cc1cccc(Cl)c1Nc1nc2cc(N3CCNCC3)ccc2n2cncc12` registered an IC50 of 1000 nM.

The compound `COc1cc2nc(Nc3c(C)cccc3C)c3cncn3c2cc1OC` yielded an IC50 of 1100 nM. With `COc1ccc2c(c1)nc(Nc1c(C)cccc1Cl)c1cncn12`, 2600 nM corresponded to half-maximal inhibition (IC50). On the same count and under the same terms, the result for `Cc1cccc(Cl)c1Nc1nc2ccc(NCCN3CCOCC3)cc2n2cncc12` reads 1300 nM; that for `Cc1cccc(Cl)c1Nc1nc2ccc(N3CCCN(C)CC3)cc2n2cncc12`, 540 nM. For `Cc1cccc(Cl)c1Nc1nc2cc(NCCN(C)C)ccc2n2cncc12`, the IC50 is 520 nM. `COc1cc2nc(Nc3c(C)cccc3Cl)c3cncn3c2cc1N1CC(C)NC(C)C1` (configuration not stated) came in with a half-maximal inhibitory concentration (IC50) of 760 nM. With `CCNc1ccc2nc(Nc3c(C)cccc3Cl)c3cncn3c2c1`, the IC50 was 2200 nM.

In the case of `Cc1cccc(Cl)c1Nc1nc2ccc(N(C)C)cc2n2cncc12`, the IC50 was determined as 2000 nM.

In turn, `Cc1cccc(Cl)c1Nc1nc2ccc(N3CCN(C)CC3)cc2n2cncc12` came in with an IC50 of 240 nM.

In turn, `COc1ccc2nc(Nc3c(C)cccc3Cl)c3cncn3c2c1` came in with an IC50 of 1400 nM. On the same count and under the same terms, the result for `Cc1cccc(Cl)c1Nc1nc2ccc(N3CCN(C=O)CC3)cc2n2cncc12` reads 530 nM; that for `COc1cc2nc(Nc3c(C)cccc3Cl)c3cncn3c2cc1OC`, 670 nM; that for `Cc1cccc(Cl)c1Nc1nc2cc3c(cc2n2cncc12)OCCO3`, 2200 nM. Still for that read-out and setting: the figure for `Cc1cccc(Cl)c1Nc1nc2ccc(N3CCOCC3)cc2n2cncc12` is 780 nM; for `Cc1cccc(Cl)c1Nc1nc2ccc(N3CC(C)NC(C)C3)cc2n2cncc12` (configuration not stated) it is 340 nM.
